Test results reported in patent US5998433A, “Condensed compounds, their production and use” (Takeda Chemical Industries, Ltd., priority 1994, dated 1999).
Where a name gives a salt, the structure may show the parent alone.

Key:
[1] = test system: Candida tropicalis IFO 10241; assay: Antifungal activity (agar plate dilution method), organism C; format: cell-based; details: IFO10241, 35° C., 20 hours, pH 7.0
Procedure: (§1) Determination of Antifungal Activity (Agar Plate Dilution Method)
(§2) RPMI 1640 (Gibco BRL) was dissolved in 0.3 M MOPS buffer, pH 7.0, to obtain a 2-fold dilution; this solution was filtered to remove germ cells (0.45 μm). Separately, 1.4% agar (Wako Pure Chemical Industries) was thermally sterilized (121° C., 15 minutes). This agar was mixed with an equal amount of the above 2-fold diluted RPMI 1640 (0.15 M MOPS, pH 7.0). To 9.9 ml of this RPMI 1640 (0.15 M MOPS, pH 7.0)-0.7% agar medium, 0.1 ml of a 100-fold diluted DMSO solution of the test drug was added; this mixture was prepared as an agar plate in a petri dish 9 cm in diameter. The drug (dissolved in DMSO to 100-fold dilution) was used in a series of 2-fold dilutions of a starting concentration of 64 μg/ml in the agar medium. For drug-free control, an agar medium containing 0.1 ml of DMSO or […] of sterile water was prepared. An inoculum of frozen cells was diluted with physiological saline and spot inoculated onto the agar medium (0.005 ml; 700-15,000 cfu) using a microplanter (Sakuma Seisakusho), followed by cultivation at 35° C. for 20 hours. Antifungal activity was assessed macroscopically; the minimum concentration for complete growth inhibition was expressed as MIC (minimum growth inhibitory concentration).

[2] = test system: Aspergillus niger IFO 4414; assay: Antifungal activity (agar plate dilution method), organism I; format: cell-based; details: IFO4414, 35° C., 20 hours, pH 7.0
Procedure: as §1, §2

[3] = test system: Cholesterogenesis in Rat Liver; assay: Inhibition of cholesterogenesis in rat liver ([14C] acetic acid incorporation); format: in vivo, male Sprague-Dawley rats; details: by stomach tube, lower values indicate higher inhibitory activity
Procedure: Inhibition of Cholesterogenesis in Rat Liver
An aqueous solution of the test drug was administered, by a stomach tube, to male Sprague-Dawley rats at 5 weeks of age; 1 hour later, [^14 C] acetic acid was intravenously administered at a dose of 10 μCi per animal. One hour later, the animals were bled, livers were excised and a portion of liver was treated with a chloroform:methanol mixture to extract lipids. After the lipid fraction was saponified, sterol was extracted with petroleum ether, precipitated using digitonin and the radioactivity in the precipitate fraction was determined using a scintillation counter. The control group orally received 0.5% methyl cellulose solution alone.
The results are shown in Table 3 (lower percent control values indicate higher cholesterol synthesis inhibitory activity).

[4] = test system: Aspergillus fumigatus IFO 6344; assay: Antifungal activity (agar plate dilution method), organism H; format: cell-based; details: IFO6344, 35° C., 20 hours, pH 7.0
Procedure: as §1, §2

[5] = test system: Candida glabrata IFO 0622; assay: Antifungal activity (agar plate dilution method), organism D; format: cell-based; details: Nakaseomyces glabratus, IFO0622, 35° C., 20 hours, pH 7.0
Procedure: as §1, §2

Candida krusei IFO 1162 = assay: Antifungal activity (agar plate dilution method), organism F; format: cell-based; details: Pichia kudriavzevii, IFO1162, 35° C., 20 hours, pH 7.0
Procedure: as §1, §2

Candida utilis IFO 0619 = assay: Antifungal activity (agar plate dilution method), organism G; format: cell-based; details: Williopsis jadinii, IFO0619, 35° C., 20 hours, pH 7.0
Procedure: as §1, §2

Candida krusei IFO 0584 = assay: Antifungal activity (agar plate dilution method), organism E; format: cell-based; details: Pichia kudriavzevii, IFO0584, 35° C., 20 hours, pH 7.0
Procedure: as §1, §2

[6] = test system: Candida albicans IFO 0583; assay: Antifungal activity (agar plate dilution method), organism A; format: cell-based; details: IFO0583, 35° C., 20 hours, pH 7.0
Procedure: as §1, §2

[7] = test system: Candida tropicalis IFO 0587; assay: Antifungal activity (agar plate dilution method), organism B; format: cell-based; details: IFO0587, 35° C., 20 hours, pH 7.0
Procedure: as §1, §2

[8] = target: T1, 2,3-oxidosqualene cyclase (Rattus norvegicus, UniProt P48450); assay: Inhibition of 2,3-oxidosqualene cyclase activity (crude rat liver enzyme, lanosterol production, GC/Mass); format: biochemical; details: 37° C., 20 minutes, pH 7.5; read-out: Oxidosqualene Cyclase Inhibitory Activity IC50
T1 construct: The supernatant was thus obtained as a crude enzyme solution; from tissue; host or cells: liver of male SD rat, microsome fraction solubilised with n-dodecyl beta-D-maltoside
T1 sequence (P48450 1-733): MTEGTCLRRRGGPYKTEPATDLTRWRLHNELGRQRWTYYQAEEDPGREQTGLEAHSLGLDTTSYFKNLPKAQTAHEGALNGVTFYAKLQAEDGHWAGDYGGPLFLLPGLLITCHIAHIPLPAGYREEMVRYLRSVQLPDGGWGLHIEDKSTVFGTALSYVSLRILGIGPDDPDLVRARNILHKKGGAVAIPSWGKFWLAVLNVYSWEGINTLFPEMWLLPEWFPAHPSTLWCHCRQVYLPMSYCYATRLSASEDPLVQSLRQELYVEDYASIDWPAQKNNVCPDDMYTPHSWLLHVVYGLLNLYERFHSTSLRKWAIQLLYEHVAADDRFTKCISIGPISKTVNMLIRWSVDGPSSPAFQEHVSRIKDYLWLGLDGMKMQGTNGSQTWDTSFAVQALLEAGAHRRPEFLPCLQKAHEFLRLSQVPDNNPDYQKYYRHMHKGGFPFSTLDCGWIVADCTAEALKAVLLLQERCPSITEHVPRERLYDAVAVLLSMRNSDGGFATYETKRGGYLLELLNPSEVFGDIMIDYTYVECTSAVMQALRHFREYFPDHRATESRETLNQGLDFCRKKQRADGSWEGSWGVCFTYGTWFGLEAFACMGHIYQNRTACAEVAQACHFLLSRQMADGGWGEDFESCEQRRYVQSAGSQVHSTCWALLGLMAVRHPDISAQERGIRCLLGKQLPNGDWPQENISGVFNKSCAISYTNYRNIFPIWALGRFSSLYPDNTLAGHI
Procedure: Inhibition of 2,3-oxidosqualene Cyclase Activity
1) Preparation of Crude Rat Enzyme
After a male SD rat (6 weeks of age) was sacrificed by bleeding, the liver was excised. About 50 g of the liver was washed with ice-cold physiological saline and homogenized in 75 ml of ice-cold buffer [100 mM potassium phosphate buffer (pH 7.4), 15 mM nicotinamide, 2 mM MgCl2 ] and centrifuged at 10,000×g for 20 minutes (4° C.). The resulting supernatant was further centrifuged at […] for 90 minutes (4° C.) and the resulting sediment was suspended in ice-cold 100 mM potassium phosphate buffer (pH 7.4), and again centrifuged at 105,000×g for 90 minutes (4° C.). […]
To 200 μl of a reaction mixture containing […] 2,3-oxidosqualene, 50 mM Tris-HCl (pH 7.5), 0.5 mM EDTA, 0.5 mM dithiothreitol, 0.1% Tween 80, 0.25% n-dodecyl β-D-maltoside and the test drug, the crude enzyme (protein content 40 μg) was added and incubated at 37° C. for 20 minutes. […] The resulting lanosterol was quantitated with the cholestane as internal standard (gas chromatograph: Yokogawa-Hewlett-Packard HP-5890J; column: Yokogawa-Hewlett-Packard ULTRA-1, 0.32 mm dia., 0.52μ, 10 m; mass analyzer: JEOL JMS-DX303/DA5000). […]

LDL receptor = assay: Low-density lipoprotein (LDL) receptor-increasing activity in HepG2 cells; format: cell-based, human; details: 20 hours, mean ± SD (n = 3)
Procedure: Determination of Low-density Lipoprotein (LDL) Receptor-increasing Activity
Human hepatoma cell line HepG2 was seeded to 96-multiwell plates (10^4 cells/well) and cultured for 5 days in Dulbecco's minimal essential medium (DMEM) medium supplemented with 10% inactivated fetal bovine serum, followed by 20 hours of pretreatment in 100 μl of DMEM medium containing 10% lipoprotein-deficient fetal bovine serum and the test compound. After being washed with Dulbecco's phosphate-buffered saline (PBS), the cells were fixed in 4% formalin at room temperature for 1 hour. Three hundreds μl of PBS containing 3% bovine serum albumin was added; the mixture was kept standing at 5° C. overnight, after which the PBS was replaced with 50 μl of PBS containing both 5 μg/ml anti-LDL receptor monoclonal antibody (Oncogene Science) and 0.5% bovine serum albumin, followed by incubation at room temperature for 2 hours. After the cells were washed with PBS containing both 0.05% Triton X-100 and 0.5% bovine serum albumin (Triton-containing PBS), 50 μl of 400-fold diluted peroxidase-labeled anti-mouse antibody (produced by BIO-RAD) was added, followed by incubation at room temperature for 1 hour. After the cells were washed with Triton-containing PBS, peroxidase activity was determined using a Peroxidase Assay Kit A (Sumitomo Bakelite Co., Ltd.). LDL receptor-inducing activity was calculated by comparing the peroxidase activity with control activity; data were analyzed for significant difference by Student's t-test. Blank determination was performed in the absence of the anti-LDL receptor monoclonal antibody.

With `CN(C)Cc1cc2c(o1)CN(C(=O)CCCCCc1ccccc1)CC2` [Example 5, 1-(2-dimethylaminomethyl-5,7-dihydro-4H-furo[2,3-c]pyridin-6-yl)-6-phenylhexan-1-one hydrochloride] the MIC [1] was 64 µg/mL, the MIC [2] was 8 µg/mL and the “Cholesterol synthesis in rat liver, % of control” value ([3]; 30 mg/kg) was 48.9 % Control. It also gave an MIC [4] of 8 µg/mL, an MIC [5] of 32 µg/mL and an MIC (Candida krusei IFO 1162) of 8 µg/mL. It also gave an MIC (Candida utilis IFO 0619) of 2 µg/mL, an MIC (Candida krusei IFO 0584) of 8 µg/mL and an MIC [6] of 16 µg/mL. For the same compound, the MIC [7] was 16 µg/mL and the IC50 [8] was 15 nM.
For `CN(C)Cc1cc2c(o1)CN(C(=O)c1ccc(C(=O)c3ccccc3)cc1)CC2` [Example 11, N,N-dimethyl-[6-(4-benzoylbenzoyl)-4,5,6,7-tetrahydrofuro[2,3-c]pyridin-2-ylmethyl]amine hydrochloride], the “Cholesterol synthesis in rat liver, % of control” value ([3]; 0.3 mg/kg) was 52.6 % Control, the “Cholesterol synthesis in rat liver, % of control” value ([3]; 1.0 mg/kg) was 23.3 % Control and the “LDL Receptor Expression (% of Control)” value (LDL receptor; 0.2 μM) was 113.3 ± 10.6 % of Control. The “LDL Receptor Expression (% of Control)” value (LDL receptor; 2 μM, *p < 0.05) was 143.1 ± 19.7 % of Control, the “LDL Receptor Expression (% of Control)” value (LDL receptor; 20 μM, *p < 0.05) was 148.9 ± 20.5 % of Control and the IC50 [8] was 84 nM.
